Reference: US20240293421A1, “CRYSTALLINE COMPOSITION OF TILDACERFONT AND METHODS OF USE AND PREPARATION THEREOF” (Spruce Biosciences, Inc., priority 2021, published 2024)

Columns and labels:
[1] = Stability under accelerated aging conditions (40±2° C./75±5% RH); type: physicochemical; parameters: key to Related Substances by HPLC: a. C07102401-F-Imp1 / Related Substances by HPLC: b. C07102401-F-Imp2 / Related Substances by HPLC: c. Any unspecified impurity / Related Substances by HPLC: d. Total impurities: BDRL: below disregard limit; settings: for Description / Identification by FT-IR / Identification by XRPD / Related Substances by HPLC: a. C07102401-F-Imp1 / Related Substances by HPLC: b. C07102401-F-Imp2 / Related Substances by HPLC: c. Any unspecified impurity / Related Substances by HPLC: d. Total impurities / Water Content by KF / Assay of Compound 1 by HPLC: accelerated aging 40±2° C./75±5% RH; for Assay of Compound 1 by HPLC: on anhydrous basis and solvent free basis
Excerpt: (§1) To determine the stability of the crystalline compositions prepared comprising the methods described herein, crystalline compositions comprising Compound 1 and oxalic acid were formulated. Samples of the crystalline composition comprising Compound 1-oxalic acid co-crystal were packed in a transparent low-density polyethylene (LDPE) bag, and closed by twisting the bag and tying it with a strip seal. The transparent LDPE bag was then placed in a black LDPE bag that was twisted and tied with a strip seal. The bags were then placed in a high-density polyethylene container. The samples were then subjected to accelerated aging conditions (40±2° C./75±5% relative humidity (RH)) or long-term storage conditions (25±2° C./60±5% RH). Sample stability measurements in each condition were measured at baseline (before exposure to accelerated aging conditions or long-term storage conditions), and one month, two months, and three months after exposure to said conditions. Sample stability measurements included a description of the sample's physical appearance (e.g., color and form), identification by Fourier-transform infrared spectroscopy (FT-IR), identification by X-ray powder diffraction (XRPD), water content (measured by Karl Fischer (KF) on a % weight/weight basis), identification of related substances (e.g., impurities), and high-performance liquid chromatography ((HPLC) measured on a % weight/weight on an anhydrous basis and solvent free basis). Samples of the crystalline composition comprising Compound 1-oxalic acid co-crystal prepared in Example 3 are subjected to accelerated aging conditions (40±2° C./75±5% relative humidity (RH)) or long-term storage conditions (25±2° C./60±5% RH). Sample stability measurements in each condition are measured at baseline (before exposure to accelerated aging conditions or long-term storage conditions), and four months, five months, six months, seven months, eight months, nine months, ten months, eleven months, twelve months, fourteen months, sixteen months, and eighteen months after exposure to said conditions. Sample stability measurements include a description of the sample's physical appearance (e.g., color and form), identification by Fourier-transform infrared spectroscopy (FT-IR), identification by X-ray powder diffraction (XRPD), water content (measured by Karl Fischer (KF) on a % weight/weight basis), identification of related substances (e.g., impurities), and high-performance liquid chromatography ((HPLC) measured on a % weight/weight on an anhydrous basis and solvent free basis).

[2] = Stability under long-term storage conditions (25±2° C./60±5% RH); type: physicochemical; parameters: key to Related Substances by HPLC: a. C07102401-F-Imp1 / Related Substances by HPLC: b. C07102401-F-Imp2 / Related Substances by HPLC: c. Any unspecified impurity / Related Substances by HPLC: d. Total impurities: BDRL: below disregard limit; settings: for Description / Identification by FT-IR / Identification by XRPD / Related Substances by HPLC: a. C07102401-F-Imp1 / Related Substances by HPLC: b. C07102401-F-Imp2 / Related Substances by HPLC: c. Any unspecified impurity / Related Substances by HPLC: d. Total impurities / Water Content by KF / Assay of Compound 1 by HPLC: long-term storage 25±2° C./60±5% RH; for Assay of Compound 1 by HPLC: on anhydrous basis and solvent free basis
Excerpt: as §1

For `CCC(CC)c1cc(C)nc2c(-c3sc(N4CCOCC4)nc3Cl)c(C)nn12` [Compound 1-oxalic acid co-crystal], the Description ([1]; 1 month) was “Light yellow”, the “Identification by FT-IR” value ([1]; 1 month) was “concordant” and the “Identification by XRPD” value ([1]; 1 month) was “is consistent”. For the same compound, the “Related Substances by HPLC: a. C07102401-F-Imp1” value ([1]; 1 month) was “BDRL”, the “Related Substances by HPLC: b. C07102401-F-Imp2” value ([1]; 1 month) was “BDRL” and the “Related Substances by HPLC: c. Any unspecified impurity” value ([1]; 1 month) was “BDRL”. The “Related Substances by HPLC: d. Total impurities” value ([1]; 1 month) was “BDRL”, the “Water Content by KF” value ([1]; 1 month) was 0.09 % w/w and the Description ([1]; 2 months) was “Light yellow”. For the same compound, the “Identification by FT-IR” value ([1]; 2 months) was “concordant”, the “Identification by XRPD” value ([1]; 2 months) was “is consistent” and the “Related Substances by HPLC: a. C07102401-F-Imp1” value ([1]; 2 months) was “BDRL”. For the same compound, the “Related Substances by HPLC: b. C07102401-F-Imp2” value ([1]; 2 months) was “BDRL”, the “Related Substances by HPLC: c. Any unspecified impurity” value ([1]; 2 months) was “BDRL” and the “Related Substances by HPLC: d. Total impurities” value ([1]; 2 months) was “BDRL”. The “Water Content by KF” value ([1]; 2 months) was 0.02 % w/w, the Description ([1]; 3 months) was “Light yellow” and the “Identification by FT-IR” value ([1]; 3 months) was “concordant”. For the same compound, the “Identification by XRPD” value ([1]; 3 months) was “is consistent”, the “Related Substances by HPLC: a. C07102401-F-Imp1” value ([1]; 3 months) was “BDRL” and the “Related Substances by HPLC: b. C07102401-F-Imp2” value ([1]; 3 months) was “BDRL”. For the same compound, the “Related Substances by HPLC: c. Any unspecified impurity” value ([1]; 3 months) was “BDRL”, the “Related Substances by HPLC: d. Total impurities” value ([1]; 3 months) was “BDRL” and the “Water Content by KF” value ([1]; 3 months) was 0.08 % w/w. The Description ([1]; baseline) was “Light yellow”, the “Identification by FT-IR” value ([1]; baseline) was “concordant” and the “Identification by XRPD” value ([1]; baseline) was “is consistent”. For the same compound, the “Related Substances by HPLC: a. C07102401-F-Imp1” value ([1]; baseline) was “BDRL”, the “Related Substances by HPLC: b. C07102401-F-Imp2” value ([1]; baseline) was “BDRL” and the “Related Substances by HPLC: c. Any unspecified impurity” value ([1]; baseline) was “BDRL”. The “Related Substances by HPLC: d. Total impurities” value ([1]; baseline) was “BDRL”, the “Water Content by KF” value ([1]; baseline) was 0.02 % w/w and the “Assay of Compound 1 by HPLC” value ([1]; 1 month) was 99.2 % w/w. For the same compound, the “Assay of Compound 1 by HPLC” value ([1]; 2 months) was 100.1 % w/w, the “Assay of Compound 1 by HPLC” value ([1]; 3 months) was 99.2 % w/w and the “Assay of Compound 1 by HPLC” value ([1]; baseline) was 99.9 % w/w. The “Stability (overall conclusion)” value ([1]; up to 3 months at accelerated aging conditions (40±2° C./75±5% RH)) was “stable”, the Description ([2]; 1 month) was “Light yellow” and the “Identification by FT-IR” value ([2]; 1 month) was “concordant”. For the same compound, the “Identification by XRPD” value ([2]; 1 month) was “is consistent”, the “Related Substances by HPLC: a. C07102401-F-Imp1” value ([2]; 1 month) was “BDRL” and the “Related Substances by HPLC: b. C07102401-F-Imp2” value ([2]; 1 month) was “BDRL”. The “Related Substances by HPLC: c. Any unspecified impurity” value ([2]; 1 month) was “BDRL”, the “Related Substances by HPLC: d. Total impurities” value ([2]; 1 month) was “BDRL” and the “Water Content by KF” value ([2]; 1 month) was 0.10 % w/w. The Description ([2]; 2 months) was “Light yellow”, the “Identification by FT-IR” value ([2]; 2 months) was “concordant” and the “Identification by XRPD” value ([2]; 2 months) was “is consistent”. The “Related Substances by HPLC: a. C07102401-F-Imp1” value ([2]; 2 months) was “BDRL”, the “Related Substances by HPLC: b. C07102401-F-Imp2” value ([2]; 2 months) was “BDRL” and the “Related Substances by HPLC: c. Any unspecified impurity” value ([2]; 2 months) was “BDRL”. The “Related Substances by HPLC: d. Total impurities” value ([2]; 2 months) was “BDRL”, the “Water Content by KF” value ([2]; 2 months) was 0.03 % w/w and the Description ([2]; 3 months) was “Light yellow”. The “Identification by FT-IR” value ([2]; 3 months) was “concordant”, the “Identification by XRPD” value ([2]; 3 months) was “is consistent” and the “Related Substances by HPLC: a. C07102401-F-Imp1” value ([2]; 3 months) was “BDRL”. For the same compound, the “Related Substances by HPLC: b. C07102401-F-Imp2” value ([2]; 3 months) was “BDRL”, the “Related Substances by HPLC: c. Any unspecified impurity” value ([2]; 3 months) was “BDRL” and the “Related Substances by HPLC: d. Total impurities” value ([2]; 3 months) was “BDRL”. For the same compound, the “Water Content by KF” value ([2]; 3 months) was 0.05 % w/w, the Description ([2]; baseline) was “Light yellow” and the “Identification by FT-IR” value ([2]; baseline) was “concordant”. For the same compound, the “Identification by XRPD” value ([2]; baseline) was “is consistent”, the “Related Substances by HPLC: a. C07102401-F-Imp1” value ([2]; baseline) was “BDRL” and the “Related Substances by HPLC: b. C07102401-F-Imp2” value ([2]; baseline) was “BDRL”. For the same compound, the “Related Substances by HPLC: c. Any unspecified impurity” value ([2]; baseline) was “BDRL”, the “Related Substances by HPLC: d. Total impurities” value ([2]; baseline) was “BDRL” and the “Water Content by KF” value ([2]; baseline) was 0.02 % w/w. The “Assay of Compound 1 by HPLC” value ([2]; 1 month) was 99.2 % w/w, the “Assay of Compound 1 by HPLC” value ([2]; 2 months) was 100.1 % w/w and the “Assay of Compound 1 by HPLC” value ([2]; 3 months) was 99.2 % w/w. The “Assay of Compound 1 by HPLC” value ([2]; baseline) was 99.9 % w/w and the “Stability (overall conclusion)” value ([2]; up to 3 months at long-term storage conditions (25±2° C./60±5% RH)) was “stable”.
